The nature of this assay: Inhibition of U46619-induced platelet aggregation.

In general, IC50 refers to the concentration that gives 50% inhibition.

As to `CCCCCNC(=O)NS(=O)(=O)c1cc([N+](=O)[O-])ccc1Nc1ccc(C)cc1`, inhibition was half-maximal at 278 nM (IC50). In other words, the sub-micromolar range.

As to `Cc1ccc(Nc2ccc([N+](=O)[O-])cc2S(=O)(=O)NC(=O)NC(C)(C)C)cc1` [BM 573], the midpoint of inhibition, the IC50, lay at 240 nM.

For the compound `Cc1ccc(Nc2ccc([N+](=O)[O-])cc2S(=O)(=O)NC(=O)N2CCCCC2)cc1` [N-[2-(4-methylphenylamino)-5-nitrobenzenesulfonyl]-piperidine-1-carboxamide], the IC50 came out at 900 nM.

For the compound `CCCCCNC(=O)NS(=O)(=O)c1cc([N+](=O)[O-])ccc1Oc1ccc(C)cc1` [N-n-pentyl-N'-[2-(4-methylphenoxy)-5-nitrobenzenesulfonyl]urea], the IC50 is 670 nM. The IC50 values of the last two compounds are within 1.5-fold of each other.

For the compound `Cc1cccc(C)c1Nc1ccc([N+](=O)[O-])cc1S(=O)(=O)NC(=O)NC(C)(C)C` [N-tert-butyl-N'-[2-(2,6-dimethylphenylamino)-5-nitrobenzenesulfonyl]urea], the IC50 worked out at 90 nM.

Regarding `Cc1ccc(Oc2ccc([N+](=O)[O-])cc2S(=O)(=O)NC(=O)NC(C)(C)C)cc1` [N-tert-butyl-N'-[2-(4-methylphenoxy)-5-nitrobenzenesulfonyl]urea], it took 300 nM to reach half-maximal inhibition (IC50).

For the compound `Cc1ccc(Sc2ccc([N+](=O)[O-])cc2S(=O)(=O)NC(=O)NC(C)(C)C)cc1` [N-tert-butyl-N'-[2-(4-methylphenylthio)-5-nitrobenzenesulfonyl]urea], the half-inhibitory concentration (IC50) came out at 800 nM.

These data come from BindingDB's records for doi:10.1021/jm060108a (University of Liège, 2006).
